In patent publication US6653307B2, “1-aryl-4-oxo-1,4-dihydro-3-quinolinecarboxamides as antiviral agents” (Pharmacia & Upjohn Company, priority 2000, dated 2003) one finds IC50 and melting point data, which are given here for 20 compounds.

Data set [1] deals with T1, HCMV polymerase (Human cytomegalovirus, UniProt P08546).
T1 construct: made in house; host or cells: recombinant baculovirus-infected SF-9 cells
In words: HCMV polymerase scintillation proximity assay (SPA). It counts as biochemical. The following applies: 3H-dTTP incorporation. As for the experimental part:
(§1) The HCMV polymerase assay is performed using a scintillation proximity assay (SPA) as described in several references, such as N.D. Cook, et al., Pharmaceutical Manufacturing International, pages 49-53 (1992); K. Takeuchi, Laboratory Practice, September issue (1992); U.S. Pat. No. 4,568,649 (1986); which are incorporated by reference herein. Reactions are performed in 96-well plates. The assay is conducted in 100 μl volume with 5.4 mM HEPES (pH 7.5), 11.7 mM KCl, 4.5 mM MgCl2, 0.36 mg/ml BSA, and 90 nM ^3H-dTTP. Assays are run with and without CHAPS, (3-[(3-cholamidopropyl)-dimethylammonio]-1-propane-sulfonate) at a final concentration of 2 mM. HCMV polymerase is diluted in enzyme dilution buffer containing 50% glycerol, 250 mM NaCl, 10 mM HEPES (pH 7.5), 100 μg/ml BSA, and 0.01% sodium azide. The HCMV polymerase, which is expressed in recombinant baculovirus-infected SF-9 cells and purified according to literature procedures, is added at 10% (or 10 μl) of the final reaction volume, i.e., […]. Compounds are diluted in 50% DMSO and 10 μl are added to each well. Control wells contain an equivalent concentration of DMSO. Unless noted otherwise, reactions are initiated via the addition of 6 nM biotinylated poly(dA)-oligo(dT) template/primer to reaction mixtures containing the enzyme, substrate, and compounds of interest. Plates are incubated in a 25 C or 37 C H2O bath and terminated via the addition of 40 μl/reaction of 0.5 M EDTA (pH 8) per well. Reactions are terminated within the time-frame during which substrate incorporation is linear and varied depending upon the enzyme and conditions used, i.e., 30 min. for HCMV polymerase. Ten μl of streptavidin-SPA beads (20 mg/ml in PBS/10% glycerol) are added following termination of the reaction. Plates are incubated 10 min. at 37 C, then equilibrated to room temperature, and counted on a Packard Topcount. Linear regressions are performed and IC50's are calculated using computer software. A modified version of the above HCMV polymerase assay is performed as described above, but with the following changes: Compounds are diluted in 100% DMSO until final dilution into assay buffer. In the previous assay, compounds are diluted in 50% DMSO. 4.5 mM dithiotherotol (DTT) is added to the polymerase buffer.
(Scintillation proximity formats need no separation of bound from free tracer.)

Data set [2] deals with HSV polymerase (Human herpesvirus 1, UniProt P04293). In words: HSV polymerase assay (Table 1). It counts as biochemical. Here is the method: [Worded in the source for another target; this target is reported under the same test.] as §1
HSV polymerase, sequence (P04293 whole entry): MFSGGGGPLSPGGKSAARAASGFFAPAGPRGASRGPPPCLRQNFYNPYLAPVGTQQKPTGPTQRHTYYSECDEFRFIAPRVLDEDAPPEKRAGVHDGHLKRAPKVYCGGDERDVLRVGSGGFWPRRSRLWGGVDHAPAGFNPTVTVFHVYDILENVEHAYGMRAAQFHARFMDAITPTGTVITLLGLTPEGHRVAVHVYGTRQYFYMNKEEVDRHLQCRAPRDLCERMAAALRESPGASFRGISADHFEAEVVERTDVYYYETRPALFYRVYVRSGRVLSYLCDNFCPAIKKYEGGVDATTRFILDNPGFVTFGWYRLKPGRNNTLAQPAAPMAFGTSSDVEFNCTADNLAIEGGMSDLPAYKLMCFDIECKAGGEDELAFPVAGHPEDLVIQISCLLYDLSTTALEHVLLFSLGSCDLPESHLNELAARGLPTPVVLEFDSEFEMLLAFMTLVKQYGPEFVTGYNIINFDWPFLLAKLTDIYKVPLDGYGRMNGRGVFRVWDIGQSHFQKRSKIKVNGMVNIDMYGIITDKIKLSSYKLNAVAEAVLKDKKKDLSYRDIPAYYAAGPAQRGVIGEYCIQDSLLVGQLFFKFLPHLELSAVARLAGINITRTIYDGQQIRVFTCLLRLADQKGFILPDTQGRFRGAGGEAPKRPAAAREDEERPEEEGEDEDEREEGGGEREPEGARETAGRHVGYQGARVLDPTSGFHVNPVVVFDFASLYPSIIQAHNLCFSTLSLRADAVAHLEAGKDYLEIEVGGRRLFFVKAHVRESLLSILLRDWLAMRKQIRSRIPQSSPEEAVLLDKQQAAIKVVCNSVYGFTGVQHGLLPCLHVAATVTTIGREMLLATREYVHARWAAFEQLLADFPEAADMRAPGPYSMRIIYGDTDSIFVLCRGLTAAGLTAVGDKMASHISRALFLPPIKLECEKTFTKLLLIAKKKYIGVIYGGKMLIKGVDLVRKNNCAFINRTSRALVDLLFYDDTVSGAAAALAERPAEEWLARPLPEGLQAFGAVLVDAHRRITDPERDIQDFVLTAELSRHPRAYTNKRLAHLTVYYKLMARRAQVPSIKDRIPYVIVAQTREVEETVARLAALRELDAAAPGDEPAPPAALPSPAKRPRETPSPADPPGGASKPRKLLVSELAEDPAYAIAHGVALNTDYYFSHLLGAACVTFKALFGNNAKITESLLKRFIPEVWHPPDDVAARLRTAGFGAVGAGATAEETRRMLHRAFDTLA
Data set [3] has as its target VZV polymerase (Varicella-zoster virus, UniProt P09252). In words: VZV polymerase assay (Table 1). It counts as biochemical. Here is the method:
[Worded in the source for another target; this target is reported under the same test.] as §1

T1 sequence (P08546 whole entry): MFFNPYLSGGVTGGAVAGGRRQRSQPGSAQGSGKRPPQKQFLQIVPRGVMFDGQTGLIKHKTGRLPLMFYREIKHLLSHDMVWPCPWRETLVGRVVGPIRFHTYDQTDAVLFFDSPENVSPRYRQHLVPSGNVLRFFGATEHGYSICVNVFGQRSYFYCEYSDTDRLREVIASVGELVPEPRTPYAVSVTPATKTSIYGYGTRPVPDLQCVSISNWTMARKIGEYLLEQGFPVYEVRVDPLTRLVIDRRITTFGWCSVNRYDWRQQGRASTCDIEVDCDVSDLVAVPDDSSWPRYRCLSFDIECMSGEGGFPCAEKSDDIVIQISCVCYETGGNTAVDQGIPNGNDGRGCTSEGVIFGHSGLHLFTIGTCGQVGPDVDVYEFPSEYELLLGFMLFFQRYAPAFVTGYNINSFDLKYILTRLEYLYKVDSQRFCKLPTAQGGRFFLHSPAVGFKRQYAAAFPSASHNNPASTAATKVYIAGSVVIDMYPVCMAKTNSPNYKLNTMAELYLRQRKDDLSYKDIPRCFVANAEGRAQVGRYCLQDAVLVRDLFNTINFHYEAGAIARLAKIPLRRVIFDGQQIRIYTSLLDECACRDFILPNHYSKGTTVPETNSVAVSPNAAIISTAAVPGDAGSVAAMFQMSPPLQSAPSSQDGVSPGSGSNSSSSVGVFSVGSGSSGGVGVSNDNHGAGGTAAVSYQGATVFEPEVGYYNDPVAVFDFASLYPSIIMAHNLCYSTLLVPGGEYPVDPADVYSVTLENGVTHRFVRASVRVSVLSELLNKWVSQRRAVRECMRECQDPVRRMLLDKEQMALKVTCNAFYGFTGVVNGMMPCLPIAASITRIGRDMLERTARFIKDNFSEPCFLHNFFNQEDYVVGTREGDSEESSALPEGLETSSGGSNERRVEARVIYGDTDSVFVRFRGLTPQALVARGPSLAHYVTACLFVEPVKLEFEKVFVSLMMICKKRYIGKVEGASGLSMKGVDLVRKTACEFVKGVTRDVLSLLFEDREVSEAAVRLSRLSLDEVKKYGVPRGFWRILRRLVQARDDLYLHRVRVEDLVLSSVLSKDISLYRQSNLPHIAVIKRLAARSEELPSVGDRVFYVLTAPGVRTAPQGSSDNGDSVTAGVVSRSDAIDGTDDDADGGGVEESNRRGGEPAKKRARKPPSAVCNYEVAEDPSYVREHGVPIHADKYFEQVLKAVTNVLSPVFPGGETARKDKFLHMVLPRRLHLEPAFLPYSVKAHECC
VZV polymerase, sequence (P09252 whole entry): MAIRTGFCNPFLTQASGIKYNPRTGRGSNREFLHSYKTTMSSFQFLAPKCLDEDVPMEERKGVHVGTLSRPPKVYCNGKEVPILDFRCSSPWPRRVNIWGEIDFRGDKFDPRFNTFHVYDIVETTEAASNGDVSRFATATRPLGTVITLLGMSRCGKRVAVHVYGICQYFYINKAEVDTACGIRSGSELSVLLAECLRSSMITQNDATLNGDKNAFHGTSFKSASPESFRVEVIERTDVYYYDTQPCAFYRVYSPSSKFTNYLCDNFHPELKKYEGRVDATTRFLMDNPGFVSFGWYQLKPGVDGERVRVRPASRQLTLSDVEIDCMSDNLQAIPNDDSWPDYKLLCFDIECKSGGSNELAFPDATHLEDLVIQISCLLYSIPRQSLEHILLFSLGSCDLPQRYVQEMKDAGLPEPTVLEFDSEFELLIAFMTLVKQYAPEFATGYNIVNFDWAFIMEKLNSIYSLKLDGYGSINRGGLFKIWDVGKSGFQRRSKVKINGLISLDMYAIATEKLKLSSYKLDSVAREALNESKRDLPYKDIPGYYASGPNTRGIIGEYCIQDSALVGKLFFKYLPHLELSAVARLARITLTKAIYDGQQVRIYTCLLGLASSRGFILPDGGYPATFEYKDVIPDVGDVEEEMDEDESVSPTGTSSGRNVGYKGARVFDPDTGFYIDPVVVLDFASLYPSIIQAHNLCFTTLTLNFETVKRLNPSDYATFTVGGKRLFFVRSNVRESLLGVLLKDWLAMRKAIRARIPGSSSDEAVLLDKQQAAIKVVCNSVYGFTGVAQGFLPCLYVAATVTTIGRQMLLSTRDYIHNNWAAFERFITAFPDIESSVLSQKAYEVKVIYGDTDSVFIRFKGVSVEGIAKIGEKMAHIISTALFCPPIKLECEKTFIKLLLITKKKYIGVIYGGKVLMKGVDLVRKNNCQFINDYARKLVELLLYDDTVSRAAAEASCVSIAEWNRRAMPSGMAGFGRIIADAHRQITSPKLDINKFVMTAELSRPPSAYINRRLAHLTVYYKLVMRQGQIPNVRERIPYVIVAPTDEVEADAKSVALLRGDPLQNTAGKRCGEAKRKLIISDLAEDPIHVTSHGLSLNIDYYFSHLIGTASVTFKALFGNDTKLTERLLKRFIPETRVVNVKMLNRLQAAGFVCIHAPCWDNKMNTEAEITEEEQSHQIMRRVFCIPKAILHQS

For orientation: IC50 means the midpoint of a concentration-inhibition curve. High values mean a need for much substance, low ones inhibition by little substance. In general, melting point refers to the temperature, or range, at which the solid turns liquid. As to `O=C(NCc1ccc(Cl)cc1)c1cn(-c2ccccc2)c2ccc(CN3CCOCC3)cc2c1=O` [Example 1, N-(4-Chlorobenzyl)-6-(4-morpholinylmethyl)-4-oxo-1-phenyl-1,4-dihydro-3-quinolinecarboxamide], the melting point lay in the range of 168 to 169 °C. In data set [1], this compound registered an IC50 of 0.81 µM. In data set [2], the IC50 is 0.55 µM. Further, the IC50 in data set [3] was 0.4 µM.

Compound `Cc1ccccc1-n1cc(C(=O)NCc2ccc(Cl)cc2)c(=O)c2cc(CN3CCOCC3)ccc21` [Example 2, N-(4-Chlorobenzyl)-1-(2-methylphenyl)-6-(4-morpholinylmethyl)-4-oxo-1,4-dihydro-3-quinolinecarboxamide] came in with a melting point of 148 to 150 °C. For the same compound, the IC50 in data set [1] came out at 3 µM.

In turn, `O=C(NCc1ccc(Cl)cc1)c1cn(-c2cccc(I)c2)c2ccc(CN3CCOCC3)cc2c1=O` [Example 3, N-(4-Chlorobenzyl)-1-(3-iodophenyl)-6-(4-morpholinylmethyl)-4-oxo-1,4-dihydro-3-quinolinecarboxamide] registered a melting point of 176 to 179 °C. In addition, the IC50 in data set [1] was found to be 2.1 µM.

`O=C(NCc1ccc(Cl)cc1)c1cn(-c2ccc(Cl)cc2)c2ccc(CN3CCOCC3)cc2c1=O` [Example 4, N-(4-Chlorobenzyl)-1-(4-chlorophenyl)-6-(4-morpholinylmethyl)-4-oxo-1,4-dihydro-3-quinolinecarboxamide] yielded a melting point of 189 to 191 °C. Besides, in data set [1], 1.1 µM corresponded to half-maximal inhibition (IC50).

Turning to `CC(C)c1ccc(-n2cc(C(=O)NCc3ccc(Cl)cc3)c(=O)c3cc(CN4CCOCC4)ccc32)cc1` [Example 5, N-(4-Chlorobenzyl)-1-(4-isopropylphenyl)-6-(4-morpholinylmethyl)-4-oxo-1,4-dihydro-3-quinolinecarboxamnide], the melting point was in the range of 199 to 203 °C. For the same compound, the midpoint of inhibition in data set [1], the IC50, lay at 4 µM.

Consider `COc1ccc(-n2cc(C(=O)NCc3ccc(Cl)cc3)c(=O)c3cc(CN4CCOCC4)ccc32)cc1` [Example 6, N-(4-Chlorobenzyl)-1-(4-methoxyphenyl)-6-(4-morpholinylmethyl)-4-oxo-1,4-dihydro-3-quinolinecarboxamide], for which the melting point was 189 to 191 °C. This compound yielded an IC50 in data set [1] of 1.1 µM.

With `O=C(NCc1ccc(F)cc1)c1cn(-c2ccc(Cl)cc2)c2ccc(CN3CCOCC3)cc2c1=O` [Example 7, N-(4-Fluorobenzyl)-1-(4-chlorophenyl)-6-(4-morpholinylmethyl)-4-oxo-1,4-dihydro-3-quinolinecarboxamide], the IC50 in data set [1] was found to be 2 µM.

In turn, `O=C(NCc1ccc(Cl)cc1)c1cn(-c2ccccc2CO)c2ccc(CN3CCOCC3)cc2c1=O` [Example 8, N-(4-Chlorobenzyl)-1-(2-(hydroxymethyl)phenyl)-6-(4-morpholinylmethyl)-4-oxo-1,4-dihydro-3-quinolinecarboxamide] yielded a melting point of 162 to 163 °C. Also, half-maximal inhibition in data set [1] (IC50) required 1.47 µM.

In the case of `O=C(NCc1ccc(Cl)cc1)c1cn(-c2ccc3c(c2)CCC3)c2ccc(CN3CCOCC3)cc2c1=O` [Example 9, N-(4-Chlorobenzyl)-1-(2,3-dihydro-1H-inden-5-yl)-6-(4-morpholinylmethyl)-4-oxo-1,4-dihydro-3-quinolinecarboxamide], the melting point is 123 to 125 °C. 1.32 µM corresponded to half-maximal inhibition in data set [1] (IC50).

The compound `O=C(NCc1ccc(Cl)cc1)c1cn(-c2ccc3c(c2)OCO3)c2ccc(CN3CCOCC3)cc2c1=O` [Example 10, 1-(1,3-Benzodioxol-5-yl)-N-(4-chlorobenzyl)-6-(4-morpholinylmethyl)-4-oxo-1,4-dihydro-3-quinolinecarboxamide] displayed a melting point of 188 to 189 °C. In data set [1], this compound gave a concentration for half-maximal inhibition (IC50) of 0.89 µM.

The compound `O=C(NCc1ccc(Cl)cc1)c1cn(-c2ccc3[nH]ccc3c2)c2ccc(CN3CCOCC3)cc2c1=O` [Example 11, N-(4-Chlorobenzyl)-1-(1H-indol-5-yl)-6-(4-morpholinylmethyl)-4-oxo-1,4-dihydro-3-quinolinecarboxamide] yielded a melting point of 241 to 243 °C. This compound gave an IC50 in data set [1] of 1.18 µM.

In the case of `O=C(NCc1ccc(F)cc1)c1cn(-c2ccc3[nH]ccc3c2)c2ccc(CN3CCOCC3)cc2c1=O` [Example 12, N-(4-Fluorobenzyl)-1-(1 H-indol-5-yl)-6-(4-morpholinylmethyl)-4-oxo-1,4-dihydro-3-quinolinecarboxamide], the melting point was 223 to 225 °C. The compound further showed an IC50 in data set [1] of 2.2 µM.

`O=C(NCc1ccc(F)cc1)c1cn(-c2cccc(CCO)c2)c2ccc(CN3CCOCC3)cc2c1=O` [Example 15, N-(4-Fluorobenzyl)-1-(3-(2-hydroxyethyl)phenyl)-6-(4-morpholinylmethyl)-4-oxo-1,4-dihydro-3-quinolinecarboxamide] yielded a melting point of 128 to 132 °C. The same compound returned an IC50 in data set [1] of 1.7 µM.

The compound `COc1cccc(-n2cc(C(=O)NCc3ccc(Cl)cc3)c(=O)c3cc(CN4CCOCC4)ccc32)c1` [Example 16, N-(4-Chlorobenzyl)-1-(3-methoxyphenyl)-6-(4-morpholinylmethyl)-4-oxo-1,4-dihydro-3-quinolinecarboxamide] displayed a melting point of 110 to 113 °C. The compound also had an IC50 in data set [1] of 1.9 µM.

The compound `O=C(NCc1ccc(Cl)cc1)c1cn(-c2ccc(N3CCOCC3)cc2)c2ccc(CN3CCOCC3)cc2c1=O` [Example 18, N-(4-Chlorobenzyl)-6-(4-morpholinylmethyl)-1-(4-(4-morpholinyl)phenyl)-4-oxo-1,4-dihydro-3-quinolinecarboxamide] registered a melting point of 162 to 164 °C. Also, in data set [1], the IC50 amounted to 1.21 µM.

With `O=C(NCc1ccc(Cl)cc1)c1cn(-c2ccc(F)c(F)c2)c2ccc(CN3CCOCC3)cc2c1=O` [Example 19, N-(4-Chlorobenzyl)-1-(3,4-difluorophenyl)-6-(4-morpholinylmethyl)-4-oxo-1,4-dihydro-3-quinolinecarboxamide], the melting point lay within 107 to 110 °C. In data set [1], this compound registered an IC50 of 1.05 µM.

In the case of `O=C(NCc1ccc(Cl)cc1)c1cn(-c2cccc(C#CCCO)c2)c2ccc(CN3CCOCC3)cc2c1=O` [Example 21, N-(4-Chlorobenzyl)-1-(3-(4-hydroxy-1-butynyl)phenyl)-6-(4-morpholinylmethyl)-4-oxo-1,4-dihydro-3-quinolinecarboxamide], the melting point fell in the range of 125 to 128 °C. For the same compound, in data set [1], the IC50 is 1.13 µM.

Compound `O=C(NCc1ccc(Cl)cc1)c1cn(-c2cccc(C#CCCCO)c2)c2ccc(CN3CCOCC3)cc2c1=O` [Example 22] yielded a melting point of 125 to 128 °C. For the same compound, in data set [1], the IC50 was 0.93 µM.

Compound `O=C(NCc1ccc(Cl)cc1)c1cn(-c2cccc(CCCCCO)c2)c2ccc(CN3CCOCC3)cc2c1=O` [Example 23, N-(4-Chlorobenzyl)-1-(3-(5-hydroxypentyl)phenyl)-6-(4-morpholinylmethyl)-4-oxo-1,4-dihydro-3-quinolinecarboxamide] showed a melting point of 142 to 144 °C. For the same compound, in data set [1], half-maximal inhibition (IC50) was put at 0.76 µM.

`O=C(NCc1ccc(Cl)cc1)c1cn(-c2cccc(CCCCO)c2)c2ccc(CN3CCOCC3)cc2c1=O` [Example 24, N-(4-Chlorobenzyl)-1-(3-(4-hydroxybutyl)phenyl)-6-(4-morpholinylmethyl)-4-oxo-1,4-dihydro-3-quinolinecarboxamide] returned a melting point of 119 to 121 °C. For the same compound, in data set [1], inhibition was half-maximal at 0.68 µM (IC50).
